Test results from PubChem BioAssay AID1259407 (Chemical Carcinogenesis Research Information System (CCRIS), 2018).
Calls of active or inactive are those of the source. No rule for the calls is given here.

Tested on: CCRIS mutagenicity, Ames/micronucleus/aberration tests
Experiment: CCRIS mutagenicity studies

CCCCC(CC)COC(=O)c1ccccc1C(=O)OCC(CC)CCCC (stereo not drawn)
mutagenic call (Test System: AMES SALMONELLA TYPHIMURIUM, Strain/Indicator: TA1535, Metabolic Activation: RAT LIVER S-9, PHENOBARBITAL AND BETA-NAPHTHOFLAVONE, Method: PREINCUBATION): inactive; negative | mutagenic call (Test System: AMES SALMONELLA TYPHIMURIUM, Strain/Indicator: TA1535, Metabolic Activation: RAT, LIVER, S-9, AROCLOR 1254 (10%), Method: PREINCUBATION): inactive; negative | mutagenic call (Test System: AMES SALMONELLA TYPHIMURIUM, Strain/Indicator: TA1535, Metabolic Activation: RAT, LIVER, S-9, AROCLOR 1254, Method: STANDARD PLATE): inactive; negative | mutagenic call (Test System: AMES SALMONELLA TYPHIMURIUM, Strain/Indicator: TA1537, Metabolic Activation: HAMSTER, LIVER, S-9, AROCLOR 1254 (10%), Method: PREINCUBATION): inactive; negative | mutagenic call (Test System: AMES SALMONELLA TYPHIMURIUM, Strain/Indicator: TA1537, Metabolic Activation: NONE, Method: FLUCTUATION (MICROTITER)): inactive; negative | mutagenic call (Test System: AMES SALMONELLA TYPHIMURIUM, Strain/Indicator: TA1537, Metabolic Activation: NONE, Method: PREINCUBATION): inactive; negative | mutagenic call (Test System: AMES SALMONELLA TYPHIMURIUM, Strain/Indicator: TA1537, Metabolic Activation: NONE, Method: STANDARD PLATE): inactive; negative | mutagenic call (Test System: AMES SALMONELLA TYPHIMURIUM, Strain/Indicator: TA1537, Metabolic Activation: RAT LIVER S-9, AROCLOR 1254, Method: FLUCTUATION (MICROTITER)): inactive; negative | mutagenic call (Test System: AMES SALMONELLA TYPHIMURIUM, Strain/Indicator: TA1537, Metabolic Activation: RAT LIVER S-9, PHENOBARBITAL AND BETA-NAPHTHOFLAVONE, Method: PREINCUBATION): inactive; negative | mutagenic call (Test System: AMES SALMONELLA TYPHIMURIUM, Strain/Indicator: TA1537, Metabolic Activation: RAT, LIVER, S-9, AROCLOR 1254 (10%), Method: PREINCUBATION): inactive; negative | mutagenic call (Test System: AMES SALMONELLA TYPHIMURIUM, Strain/Indicator: TA1537, Metabolic Activation: RAT, LIVER, S-9, AROCLOR 1254, Method: STANDARD PLATE): inactive; negative | mutagenic call (Test System: AMES SALMONELLA TYPHIMURIUM, Strain/Indicator: TA1538, Metabolic Activation: NONE, Method: STANDARD PLATE): inactive; negative | mutagenic call (Test System: AMES SALMONELLA TYPHIMURIUM, Strain/Indicator: TA1538, Metabolic Activation: RAT, LIVER, S-9, AROCLOR 1254, Method: STANDARD PLATE): inactive; negative | mutagenic call (Test System: AMES SALMONELLA TYPHIMURIUM, Strain/Indicator: TA2638, Metabolic Activation: RAT LIVER S-9, PHENOBARBITAL AND 5,6-BENZOFLAVONE, Method: STANDARD PLATE): inactive; negative | mutagenic call (Test System: AMES SALMONELLA TYPHIMURIUM, Strain/Indicator: TA7001, Metabolic Activation: NONE, Method: FLUCTUATION (MICROTITER)): inactive; negative | mutagenic call (Test System: AMES SALMONELLA TYPHIMURIUM, Strain/Indicator: TA7001, Metabolic Activation: RAT LIVER S-9, AROCLOR 1254, Method: FLUCTUATION (MICROTITER)): inactive; negative | mutagenic call (Test System: AMES SALMONELLA TYPHIMURIUM, Strain/Indicator: TA7002, Metabolic Activation: NONE, Method: FLUCTUATION (MICROTITER)): inactive; negative | mutagenic call (Test System: AMES SALMONELLA TYPHIMURIUM, Strain/Indicator: TA7002, Metabolic Activation: RAT LIVER S-9, AROCLOR 1254, Method: FLUCTUATION (MICROTITER)): inactive; negative | mutagenic call (Test System: AMES SALMONELLA TYPHIMURIUM, Strain/Indicator: TA7003, Metabolic Activation: NONE, Method: FLUCTUATION (MICROTITER)): inactive; negative | mutagenic call (Test System: AMES SALMONELLA TYPHIMURIUM, Strain/Indicator: TA7003, Metabolic Activation: RAT LIVER S-9, AROCLOR 1254, Method: FLUCTUATION (MICROTITER)): inactive; negative | mutagenic call (Test System: AMES SALMONELLA TYPHIMURIUM, Strain/Indicator: TA7004, Metabolic Activation: NONE, Method: FLUCTUATION (MICROTITER)): inactive; negative | mutagenic call (Test System: AMES SALMONELLA TYPHIMURIUM, Strain/Indicator: TA7004, Metabolic Activation: RAT LIVER S-9, AROCLOR 1254, Method: FLUCTUATION (MICROTITER)): inactive; negative | mutagenic call (Test System: AMES SALMONELLA TYPHIMURIUM, Strain/Indicator: TA7005, Metabolic Activation: NONE, Method: FLUCTUATION (MICROTITER)): inactive; negative | mutagenic call (Test System: AMES SALMONELLA TYPHIMURIUM, Strain/Indicator: TA7005, Metabolic Activation: RAT LIVER S-9, AROCLOR 1254, Method: FLUCTUATION (MICROTITER)): inactive; negative | mutagenic call (Test System: AMES SALMONELLA TYPHIMURIUM, Strain/Indicator: TA7006, Metabolic Activation: NONE, Method: FLUCTUATION (MICROTITER)): inactive; negative | mutagenic call (Test System: AMES SALMONELLA TYPHIMURIUM, Strain/Indicator: TA7006, Metabolic Activation: RAT LIVER S-9, AROCLOR 1254, Method: FLUCTUATION (MICROTITER)): inactive; negative | mutagenic call (Test System: E. COLI, Strain/Indicator: WP2 (PKM101), Metabolic Activation: RAT LIVER S-9, PHENOBARBITAL, AND 5,6-BENZOFLAVONE, Method: STANDARD PLATE): inactive; negative | mutagenic call (Test System: E. COLI, Strain/Indicator: WP2 UVRA (PKM101), Metabolic Activation: RAT LIVER S-9, PHENOBARBITAL AND 5,6-BENZOFLAVONE, Method: STANDARD PLATE): inactive; negative | mutagenic call (Test System: E.COLI, Strain/Indicator: WP2UVRA, Metabolic Activation: NONE, Method: PREINCUBATION): inactive; negative | mutagenic call (Test System: E.COLI, Strain/Indicator: WP2UVRA, Metabolic Activation: RAT LIVER S-9, PHENOBARBITAL AND BETA-NAPHTHOFLAVONE, Method: PREINCUBATION): inactive; negative | mutagenic call (Test System: MOUSE LYMPHOMA, Strain/Indicator: L5178Y (TK+/+)/OUABAIN, Metabolic Activation: NONE, Method: SUSPENSION/PLATE): inactive; negative | mutagenic call (Test System: MOUSE LYMPHOMA, Strain/Indicator: L5178Y (TK+/+)/OUABAIN, Metabolic Activation: RAT LIVER S-9, AROCLOR 1254, Method: SUSPENSION/PLATE): inactive; negative | mutagenic call (Test System: MOUSE LYMPHOMA, Strain/Indicator: L5178Y (TK+/-)/TRIFLUROTHYMIDINE, Metabolic Activation: NONE, Method: SUSPENSION/PLATE): inactive; negative | mutagenic call (Test System: MOUSE LYMPHOMA, Strain/Indicator: L5178Y (TK+/-)/TRIFLUROTHYMIDINE, Metabolic Activation: RAT LIVER S-9, AROCLOR 1254, Method: SUSPENSION/PLATE): inactive; negative | mutagenic call (Test System: MOUSE LYMPHOMA, Strain/Indicator: L5178Y (TK+/TK-), Metabolic Activation: NONE, Method: SUSPENSION/PLATE): inactive; negative | mutagenic call (Test System: MOUSE LYMPHOMA, Strain/Indicator: L5178Y (TK+/TK-), Metabolic Activation: RAT, LIVER, S-9, AROCLOR 1254, Method: SUSPENSION/PLATE): active; positive | mutagenic call (Test System: MOUSE LYMPHOMA, Strain/Indicator: L5178Y (TK+/TK-), Metabolic Activation: RAT, LIVER, S-9, Method: SUSPENSION/PLATE): inactive; negative | mutagenic call (Test System: UDS RAT HEPATOCYTES, Strain/Indicator: THY INCORP, Metabolic Activation: NONE, Method: LIQUID SCINTILLATION COUNTING): active; positive
